Results on six compounds are retold here after US4093717A, “Antimicrobial compositions” (University of Mississippi, priority 1975, dated 1978).

≈ marks a conversion by molar mass, not a printed value. Where a name gives a salt, the structure may show the parent alone. Read-outs that look alike come from different tables or passages of the source.

For assay [1], the system named is Staphylococcus aureus ATCC 6538. Put plainly: agar well diffusion assay, S. aureus. The class given is cell-based. Conditions: read-out: width of the clear zone of inhibition, S. aureus. As for the experimental part:
(§1) Bacterial test organisms were cultured in Eugonager and Eugonbroth (BBL), and fungi and yeasts were cultured in Mycophil (BBL) agar and broth. Antimicrobial activity was recorded as the width (in millimeters) of the clear zone of inhibition surrounding the agar well.
(§2) Qualitative evaluation of antimicrobial activity of the inventive extracts, fractions, and pure compounds was accomplished using an agar well diffusion assay. As set out hereinbefore, the inventive compositions were tested for activity against the following microorganisms: Staphylococcus aureus ATCC 6538; Escherichia coli ATCC 10536; Mycobacterium smegmatis ATCC 607; Pseudomonas aeruginosa ATCC 15442; Candida albicans ATCC 10321; Saccharomyces cerevisiae ATCC 9763; and Asperigillus niger ATCC 16888. In addition, the compounds of the preferred embodiments were also tested against Bacillus subtilis ATCC 6633. Bacterial test organisms were cultured in Eugonagar and Eugonbroth (BBL), and fungi and yeasts were cultured in Mycophil (BBL) agar and broth.
(§3) Plates for assay were prepared by uniformly seeding sterily, partially cooled, molten agar with dilutions of test organisms grown in broth or suspensions of conidia produced on agar slants (A. niger). The seeded agar medium was dispensed into 100 × 15 mm sterile petri dishes (15 ml per dish). Cylindrical plugs were removed from the solidified agar plates, using a sterile cork borer, to produce wells having a diameter of approximately 11 mm. One hundred microliters of a solution or suspension of an extract, fraction, or pure compound was added to each well. The extracts and fractions were tested as solutions or suspensions in a concentration of 20 mg/ml; pure compounds were tested at 1 mg/ml. When solvents other than water were required to dissolve extracts or compounds, solvent blanks were run against each test organism.
(§4) Plates prepared as described above were incubated as follows: Bacteria were grown at 37° C. for 24 hours, with the exception of M. smegmatis, which grows more slowly and requires incubation at 37° C. for 48 hours, before reading. Fungi or yeast were incubated at 25° C. for 24 hours, before growth was evident.
(§5) Antimicrobial activity was recorded as the width (in mm) of the clear zone of inhibition surrounding the agar well.
For orientation: In agar diffusion tests the substance spreads into inoculated agar from a disc or well.

The subject of assay [2] is Bacillus subtilis ATCC 6633. Put plainly: agar well diffusion assay, B. subtilis. The settings on record: read-out: width of the clear zone of inhibition, B. subtilis. In kind it is cell-based. As for the experimental part: as §1, §2, §3, §4, §5
For assay [3], the system named is Mycobacterium smegmatis ATCC 607. The assay can be described thus: agar well diffusion assay, M. smegmatis. In kind it is cell-based. Conditions: Mycolicibacterium smegmatis, read-out: width of the clear zone of inhibition, M. smegmatis. As for the experimental part: as §1, §2, §3, §4, §5
In another assay the test system is Candida albicans. The assay can be described thus: agar well diffusion assay, C. albicans. The class given is cell-based. The settings on record: read-out: width of the clear zone of inhibition, C. Albicans. As for the experimental part:
as §1, §2, §3, §4, §5

Assay [4] relates to Saccharomyces cerevisiae ATCC 9763. Put plainly: agar well diffusion assay, S. cerevisiae. The class given is cell-based. Conditions: read-out: width of the clear zone of inhibition, S. cerevisiae. As for the experimental part:
as §1, §2, §3, §4, §5

Another assay concerns S. aureus. The assay can be described thus: two-fold serial dilution assay (MIC), S. aureus. The settings on record: Staphylococcus aureus; 24 hours; read-out: Minimum Inhibitory Concentration, S. aureus. The class given is cell-based. From the text:
(§6) Quantitive assay of antimicrobial activity of the inventive compositions against selected test organisms was made using a two-fold serial dilution in Eugonbroth or Mycophil broth. The concentration of pure alkaloids in the initial dilution tube was 50 mcg/ml. Streptomycin sulfate (Nutrional Biochemical) and amphotericin B (Calbiochem "A" grade) at the same concentrations as above were used as standard antibiotics for comparison with the activities of the alkaloids against bacteria and yeast species, respectively. Cultures used in the serial dilution assay included S. aureus, B. subtilis, M. smegmatis, C. albicans, and S. cerevisiae. Readings were taken after incubation times of 24 hours for all organisms except M. smegmatis, which was read at 72 hours. The concentration mcg/ml of the tube of highest dilution which was free from growth was recorded as the minimal inhibitory concentration in Table 3.

The test system of the next assay is B. subtilis. Put plainly: two-fold serial dilution assay (MIC), B. subtilis. In kind it is cell-based. The settings on record: Bacillus subtilis, read-out: Minimum Inhibitory Concentration, R. Subtilis.
Source text: as §6

In the next assay the test system is M. smegmatis. The assay can be described thus: two-fold serial dilution assay (MIC), M. smegmatis. The class given is cell-based, Mycobacterium smegmatis. The settings on record: Mycolicibacterium smegmatis, read-out: Minimum Inhibitory Concentration, M. Smegmatis.
Source text: as §6

In the next assay the test system is C. albicans. Put plainly: two-fold serial dilution assay (MIC), C. albicans. The class given is cell-based, Candida albicans. The settings on record: for MIC: Candida albicans, read-out: Minimum Inhibitory Concentration, C. Albicans.
Source text: as §6

The subject of a further assay is S. cerevisiae. Put plainly: two-fold serial dilution assay (MIC), S. cerevisiae. Conditions: Saccharomyces cerevisiae, read-out: Minimum Inhibitory Concentration, S. cerevisiae. The class given is cell-based.
Source text: as §6

In a further assay the test system is test organisms. The assay can be described thus: qualitative antimicrobial activity of extracts, fractions and compounds. In kind it is cell-based. The settings on record: text statement on extracts, fractions, compounds.
The subject of assay [5] is Asperigillus niger ATCC 16888. The assay can be described thus: agar well diffusion assay, A. niger. In kind it is cell-based. The settings on record: Aspergillus niger, read-out: width of the clear zone of inhibition, A. niger. As for the experimental part: as §1
as §2, with “broth. […]” for “broth.”
Plates prepared as described above were incubated as follows: Bacteria were grown at 37° C. for 24 hours, with the exception of M. smegmatis, which grows more slowly and requires incubation at 37° C. for 48 hours, before reading. […]
as §5

Assay [6] relates to S. aureus, B. subtilis, M. smegmatis, C. albicans, and S. cerevisiae. The assay can be described thus: two-fold serial dilution assay, activity overall against bacteria and yeasts. The class given is cell-based. The settings on record: from the data in Table 3.
Source text: as §6

[7] abbreviates: ATCC6538, 37° C., 24 hours, extracts and fractions 20 mg/ml, pure compounds 1 mg/ml, 100 microliters per well.
The mark [8] stands for this setting: ATCC6633, 37° C., 24 hours, pure compounds 1 mg/ml, 100 microliters per well.
Where [9] appears, read: ATCC607, 37° C., 48 hours, extracts and fractions 20 mg/ml, pure compounds 1 mg/ml, 100 microliters per well.
The mark [10] stands for this setting: 25° C., 24 hours, extracts and fractions 20 mg/ml, pure compounds 1 mg/ml, 100 microliters per well.
[11] abbreviates: ATCC9763, 25° C., 24 hours, pure compounds 1 mg/ml, 100 microliters per well.

Method for test organisms: Qualitative evaluation of antimicrobial activity of the inventive extracts, fractions, and pure compounds was accomplished using an agar well diffusion assay. As set out hereinbefore, the inventive compositions were tested for activity against the following microorganisms: Staphylococcus aureus ATCC 6538; Escherichia coli ATCC 10536; Mycobacterium smegmatis ATCC 607; Pseudomonas aeruginosa ATCC 15442; Candida albicans ATCC 10321; Saccharomyces cerevisiae ATCC 9763; and Asperigillus niger ATCC 16888. […] Bacterial test organisms were cultured in Eugonagar and Eugonbroth (BBL), and fungi and yeasts were cultured in Mycophil (BBL) agar and broth.

One may read the zone of inhibition as the size of the clear area around the sample on an inoculated plate. As for `COc1cc2cc3c4c(cc(OC)c(OC)c4c2cc1OC)CCN3C` [dehydroglaucine], the zone of inhibition at 1000 µg/mL in assay [1] (ATCC6538, 24 h) turned out to be 4 mm; in [2] (ATCC6633, 24 h), 7 mm; in assay [3] (ATCC607, 48 h), 8 mm; with Candida albicans (24 h) it was 6 mm; in [4] (ATCC9763, 24 h), 6 mm. For the same compound, the MIC with S. aureus was determined as 25 µg/mL (≈ 70.7 µM); with B. subtilis (24 h), 25 µg/mL (≈ 70.7 µM); in the assay with M. smegmatis (72 h) it was 25 µg/mL (≈ 70.7 µM); with C. albicans (24 h), 25 µg/mL (≈ 70.7 µM); in the assay on S. cerevisiae (24 h), 50 µg/mL (≈ 141 µM). The “antimicrobial activity (in words)” value was “exhibited antimicrobial activity” in the assay with test organisms and “exhibit all of the antimicrobial activity in that Fraction” with test organisms (listed as Dehydroglaucine).

For `COc1cc2c(cc1OC)-c1c(OC)c(OC)cc3cc[n+](C)c(c13)C2=O` [oxoglaucine methiodide], the zone of inhibition at 1000 µg/mL turned out to be 9 mm in assay [1] (setting [7]); 9 mm in assay [2] (setting [8]); 10 mm in [3] (setting [9]); 10 mm with Candida albicans (setting [10]); 11 mm in [4] (setting [11]). In addition, the MIC with S. aureus is 25 µg/mL; in the assay on B. subtilis (24 hours), 25 µg/mL; in the assay with M. smegmatis (72 hours), 25 µg/mL; in the assay with C. albicans (24 hours), 1.56 µg/mL; in the assay with S. cerevisiae (24 hours), 25 µg/mL. For the same compound, in the assay with C. albicans (from the data in Table 3), the “activity against C. albicans (in words)” value is listed as “particularly active against C. albicans”.

In the case of `C[n+]1ccc2cc3c(c4c2c1C(=O)c1ccccc1-4)OCO3` [liriodenine methiodide], the zone of inhibition at 1000 µg/mL in assay [1] (setting [7]) was 6 mm; in assay [2] (setting [8]), 6 mm; in [3] (setting [9]) it was 14 mm; in the assay with Candida albicans (setting [10]), 17 mm; in assay [4] (setting [11]), 15 mm; in assay [5] (ATCC16888, 25° C., 24 hours, extracts and fractions 20 mg/ml, pure compounds 1 mg/ml, 100 microliters per well), 4 mm. Besides, the MIC with S. aureus was 6.2 µg/mL; in the assay with B. subtilis (24 hours) it was 3.1 µg/mL; in the assay on M. smegmatis (72 hours), 3.1 µg/mL; in the assay with C. albicans (24 hours), 0.78 µg/mL; with S. cerevisiae (24 hours), 3.1 µg/mL. Moreover, the “in vitro activity compared with standard antibiotics or other alkaloids” value in assay [6] is “in vitro activity comparable to that of streptomycin sulfate and amphotericin B”.

For `O=C1c2ccccc2-c2c3c(cc4ccnc1c24)OCO3` [liriodenine], the zone of inhibition at 1000 µg/mL in [1] (ATCC6538, 24 h) was determined as 5 mm; in assay [2] (ATCC6633, 24 h), 8 mm; in assay [3] (ATCC607, 48 h), 11 mm; in the assay on Candida albicans (24 h), 3 mm; in assay [4] (ATCC9763, 24 h), 5 mm; in assay [5] (ATCC16888, 24 h), 11 mm. In addition, the MIC worked out at 3.1 µg/mL (≈ 11.3 µM) in the assay with S. aureus; 0.39 µg/mL (≈ 1.42 µM) in the assay with B. subtilis (24 h); 1.56 µg/mL (≈ 5.67 µM) in the assay with M. smegmatis (72 h); 6.2 µg/mL (≈ 22.5 µM) in the assay with C. albicans (24 h); 6.2 µg/mL (≈ 22.5 µM) with S. cerevisiae (24 h). Moreover, the “antimicrobial activity (in words)” value with test organisms was “exhibited antimicrobial activity”; with test organisms (listed as Liriodenine), “contained all of the antimicrobial activity in this fraction”. For the same compound, the “in vitro activity compared with standard antibiotics or other alkaloids” value in assay [6] was “in vitro activity comparable to that of streptomycin sulfate and amphotericin B”.

Consider `[H]/N=C(/N)N[C@H]1[C@H](O)[C@@H](O)[C@H](O[C@@H]2O[C@@H](C)[C@](O)(C=O)[C@H]2O[C@@H]2O[C@@H](CO)[C@H](O)[C@@H](O)[C@@H]2NC)[C@@H](N/C(N)=N\[H])[C@@H]1O` [streptomycin sulfate, reference compound], for which the MIC in the assay with S. aureus was determined as 3.1 µg/mL; in the assay with B. subtilis (24 h), 1.56 µg/mL; in the assay with M. smegmatis (72 h) it was 0.78 µg/mL.

For the compound `C[C@@H]1[C@H](O)[C@@H](C)/C=C/C=C/C=C/C=C/C=C/C=C/C=C/[C@H](O[C@@H]2O[C@H](C)[C@@H](O)[C@H](N)[C@@H]2O)C[C@@H]2O[C@](O)(C[C@@H](O)C[C@@H](O)[C@H](O)CC[C@@H](O)C[C@@H](O)CC(=O)O[C@H]1C)C[C@H](O)[C@H]2C(=O)O` [amphotocericin B, amphotericin B, reference compound], the MIC in the assay with C. albicans (24 h) and in the assay with S. cerevisiae (24 h) was 0.78 µg/mL (≈ 0.844 µM) each time.
